Assay results published in PubChem BioAssay AID1963977 (Molecular Pharmacology Branch, DTP, NCI, 2024).
Each block holds one compound with its values, some of them ahead of it.

System: 624824-186-R-J3-PDC multicell spheroids, viability
Assay: Anticancer human tumor 624824-186-R-J3-PDC patient-derived colon adenocarcinoma cell line growth inhibition [PI3K]
Details: for viability, T/C: stronger effect = lower value
Summary of the method: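 Complex 3D spheroids (cancer cells + endothelial HUVEC + mesenchymal stem cells); drug pairs of targeted agent x inavolisib/alpelisib/duvelisib/copanlisib; half-log series from ~Cmax, max 10 microM if Cmax unknown; endpoint viability.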

[1] = curve of first compound, second compound 0.0316 µM
[2] = curve of first compound, second compound 0.1 µM
[3] = curve of first compound, second compound 0.316 µM
[4] = curve of first compound, second compound 1 µM
[5] = curve of first compound, second compound 3.16 µM
[6] = curve of first compound, second compound 10 µM
[7] = second compound 0.0316 µM, first compound 0.0316 µM
[8] = second compound 0.0316 µM, first compound 0.1 µM
[9] = second compound 0.1 µM, first compound 0.0316 µM
[10] = second compound 0.1 µM, first compound 0.1 µM
[11] = second compound 0.316 µM, first compound 0.0316 µM
[12] = second compound 0.316 µM, first compound 0.1 µM
[13] = second compound 1 µM, first compound 0.0316 µM
[14] = second compound 1 µM, first compound 0.1 µM
[15] = second compound 3.16 µM, first compound 0.0316 µM
[16] = second compound 3.16 µM, first compound 0.1 µM
[17] = second compound 10 µM, first compound 0.0316 µM
[18] = second compound 10 µM, first compound 0.1 µM
[19] = second compound 0.0316 µM, first compound 0.316 µM
[20] = second compound 0.0316 µM, first compound 1 µM
[21] = second compound 0.0316 µM, first compound 3.16 µM
[22] = second compound 0.0316 µM, first compound 10 µM
[23] = second compound 0.1 µM, first compound 0.316 µM
[24] = second compound 0.1 µM, first compound 1 µM
[25] = second compound 0.1 µM, first compound 3.16 µM
[26] = second compound 0.1 µM, first compound 10 µM
[27] = second compound 0.316 µM, first compound 0.316 µM
[28] = second compound 0.316 µM, first compound 1 µM
[29] = second compound 0.316 µM, first compound 3.16 µM
[30] = second compound 0.316 µM, first compound 10 µM
[31] = second compound 1 µM, first compound 0.316 µM
[32] = second compound 1 µM, first compound 1 µM
[33] = second compound 1 µM, first compound 3.16 µM
[34] = second compound 1 µM, first compound 10 µM
[35] = second compound 3.16 µM, first compound 0.316 µM
[36] = second compound 3.16 µM, first compound 1 µM
[37] = second compound 3.16 µM, first compound 3.16 µM
[38] = second compound 3.16 µM, first compound 10 µM
[39] = second compound 10 µM, first compound 0.316 µM
[40] = second compound 10 µM, first compound 1 µM
[41] = second compound 10 µM, first compound 3.16 µM
[42] = second compound 10 µM, first compound 10 µM
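Also: spheroids exposed to agents for seven days before luminescence read.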
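For viability, T/C in this document: luminescent signal used as a stand-in for spheroid viability; percent viability relative to DMSO vehicle control wells taken as 100%.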

SMILES: CC(=O)c1c(C)c2cnc(Nc3ccc(N4CCNCC4)cn3)nc2n(C2CCCC2)c1=O + Cc1nc(NC(=O)N2CCCC2C(N)=O)sc1-c1ccnc(C(C)(C)C(F)(F)F)c1
IC50 [1]: > 0.1 µM | IC50 [2]: > 0.1 µM | IC50 [3]: > 0.1 µM | IC50 [4]: > 0.1 µM | IC50 [5]: > 0.1 µM | IC50 [6]: 0.0639 µM | viability, T/C (second compound 0.0316 µM, first compound 0.000316 µM): 109% | viability, T/C (second compound 0.0316 µM, first compound 0.001 µM): 102% | viability, T/C (second compound 0.0316 µM, first compound 0.00316 µM): 119% | viability, T/C (second compound 0.0316 µM, first compound 0.01 µM): 99.5% | viability, T/C [7]: 112% | viability, T/C [8]: 101% | viability, T/C (second compound 0.1 µM, first compound 0.000316 µM): 97.3% | viability, T/C (second compound 0.1 µM, first compound 0.001 µM): 104% | viability, T/C (second compound 0.1 µM, first compound 0.00316 µM): 113% | viability, T/C (second compound 0.1 µM, first compound 0.01 µM): 103% | viability, T/C [9]: 107% | viability, T/C [10]: 106% | viability, T/C (second compound 0.316 µM, first compound 0.000316 µM): 112% | viability, T/C (second compound 0.316 µM, first compound 0.001 µM): 107% | viability, T/C (second compound 0.316 µM, first compound 0.00316 µM): 114% | viability, T/C (second compound 0.316 µM, first compound 0.01 µM): 110% | viability, T/C [11]: 104% | viability, T/C [12]: 109% | viability, T/C (second compound 1 µM, first compound 0.000316 µM): 106% | viability, T/C (second compound 1 µM, first compound 0.001 µM): 99.1% | viability, T/C (second compound 1 µM, first compound 0.00316 µM): 109% | viability, T/C (second compound 1 µM, first compound 0.01 µM): 94.8% | viability, T/C [13]: 101% | viability, T/C [14]: 93.4% | viability, T/C (second compound 3.16 µM, first compound 0.000316 µM): 85.7% | viability, T/C (second compound 3.16 µM, first compound 0.001 µM): 95.7% | viability, T/C (second compound 3.16 µM, first compound 0.00316 µM): 97.8% | viability, T/C (second compound 3.16 µM, first compound 0.01 µM): 85.1% | viability, T/C [15]: 85.3% | viability, T/C [16]: 62.9% | viability, T/C (second compound 10 µM, first compound 0.000316 µM): 71.8% | viability, T/C (second compound 10 µM, first compound 0.001 µM): 73.1% | viability, T/C (second compound 10 µM, first compound 0.00316 µM): 76% | viability, T/C (second compound 10 µM, first compound 0.01 µM): 64.6% | viability, T/C [17]: 59.7% | viability, T/C [18]: 43.9%

SMILES: CC1(C)CCC(Nc2ncc(C(F)(F)F)c(-c3c[nH]c4c(P(C)(C)=O)c(C#N)ccc34)n2)CN1 (stereo not given) + CC(Nc1ncnc2nc[nH]c12)c1cc2cccc(Cl)c2c(=O)n1-c1ccccc1
IC50 [1]: 5.14 µM | IC50 [2]: 5.36 µM | IC50 [3]: 5.34 µM | IC50 [4]: 5.19 µM | IC50 [5]: 5.01 µM | IC50 [6]: 3.65 µM | viability, T/C [7]: 99% | viability, T/C [8]: 85.7% | viability, T/C [19]: 92.2% | viability, T/C [20]: 92.5% | viability, T/C [21]: 83.8% | viability, T/C [22]: 3.64% | viability, T/C [9]: 115% | viability, T/C [10]: 89% | viability, T/C [23]: 89.2% | viability, T/C [24]: 99% | viability, T/C [25]: 89% | viability, T/C [26]: 3.93% | viability, T/C [11]: 99.2% | viability, T/C [12]: 92.4% | viability, T/C [27]: 82.2% | viability, T/C [28]: 85.1% | viability, T/C [29]: 88.1% | viability, T/C [30]: 4.29% | viability, T/C [13]: 90.8% | viability, T/C [14]: 86.2% | viability, T/C [31]: 87.3% | viability, T/C [32]: 95.5% | viability, T/C [33]: 84.8% | viability, T/C [34]: 3.92% | viability, T/C [15]: 79.5% | viability, T/C [16]: 82.5% | viability, T/C [35]: 78% | viability, T/C [36]: 80.9% | viability, T/C [37]: 82.3% | viability, T/C [38]: 4.17% | viability, T/C [17]: 66.5% | viability, T/C [18]: 63.2% | viability, T/C [39]: 63.2% | viability, T/C [40]: 60.9% | viability, T/C [41]: 57% | viability, T/C [42]: 3.67%

SMILES: CNC(=O)c1ccc(N2C(=S)N(c3ccc(C#N)c(C(F)(F)F)c3)C(=O)C2(C)C)cc1F
viability, T/C (compound 0.0316 µM): 103% [middle of 4 runs] | viability, T/C (compound 0.1 µM): 102% [middle of 4 runs] | viability, T/C (compound 0.316 µM): 107% [middle of 4 runs] | viability, T/C (compound 1 µM): 104% [middle of 4 runs] | viability, T/C (compound 3.16 µM): 106% [middle of 4 runs] | viability, T/C (compound 10 µM): 104% [middle of 4 runs] | IC50 (curve of compound): > 10 µM

Further lines, with some results ahead:

IC50 [1]: > 10 µM | IC50 [2]: > 10 µM | IC50 [3]: > 10 µM | IC50 [4]: > 10 µM | IC50 [5]: > 10 µM | IC50 [6]: > 10 µM
SMILES: CC(Cn1ccc(-c2ccc(C#N)c(Cl)c2)n1)NC(=O)c1cc(C(C)O)[nH]n1 (stereo not given) + Cc1nc(NC(=O)N2CCCC2C(N)=O)sc1-c1ccnc(C(C)(C)C(F)(F)F)c1
viability, T/C [7]: 101% | viability, T/C [8]: 107% | viability, T/C [19]: 102% | viability, T/C [20]: 104% | viability, T/C [21]: 104% | viability, T/C [22]: 113% | viability, T/C [9]: 108% | viability, T/C [10]: 105% | viability, T/C [23]: 108% | viability, T/C [24]: 102% | viability, T/C [25]: 107% | viability, T/C [26]: 109% | viability, T/C [11]: 107% | viability, T/C [12]: 101% | viability, T/C [27]: 104% | viability, T/C [28]: 93.1% | viability, T/C [29]: 115% | viability, T/C [30]: 107% | viability, T/C [13]: 111% | viability, T/C [14]: 101% | viability, T/C [31]: 109% | viability, T/C [32]: 101% | viability, T/C [33]: 101% | viability, T/C [34]: 98.7% | viability, T/C [15]: 86.4% | viability, T/C [16]: 91.5% | viability, T/C [35]: 88.3% | viability, T/C [36]: 91.4% | viability, T/C [37]: 79.3% | viability, T/C [38]: 86.1% | viability, T/C [17]: 72.4% | viability, T/C [18]: 75.6% | viability, T/C [39]: 66.5% | viability, T/C [40]: 67.3% | viability, T/C [41]: 67.3% | viability, T/C [42]: 62.4%

IC50 (curve of first compound, second compound 0.00316 µM): 5 µM | IC50 (curve of first compound, second compound 0.01 µM): 4.15 µM | IC50 [1]: 3.38 µM | IC50 [2]: 1.39 µM | IC50 [3]: 0.637 µM | IC50 [4]: 0.353 µM
SMILES: CCCS(=O)(=O)Nc1ccc(F)c(C(=O)c2c[nH]c3ncc(-c4ccc(Cl)cc4)cc23)c1F + CC(Nc1ccc2c(c1)OCCn1cc(N3C(=O)OCC3C(F)F)nc1-2)C(N)=O
viability, T/C (second compound 0.00316 µM, first compound 0.0316 µM): 93.5% | viability, T/C (second compound 0.00316 µM, first compound 0.1 µM): 89.6% | viability, T/C (second compound 0.00316 µM, first compound 0.316 µM): 98.9% | viability, T/C (second compound 0.00316 µM, first compound 1 µM): 88% | viability, T/C (second compound 0.00316 µM, first compound 3.16 µM): 71.9% | viability, T/C (second compound 0.00316 µM, first compound 10 µM): 17.3% | viability, T/C (second compound 0.01 µM, first compound 0.0316 µM): 100% | viability, T/C (second compound 0.01 µM, first compound 0.1 µM): 94.1% | viability, T/C (second compound 0.01 µM, first compound 0.316 µM): 86.9% | viability, T/C (second compound 0.01 µM, first compound 1 µM): 74.4% | viability, T/C (second compound 0.01 µM, first compound 3.16 µM): 67.9% | viability, T/C (second compound 0.01 µM, first compound 10 µM): 12.9% | viability, T/C [7]: 103% | viability, T/C [8]: 92.8% | viability, T/C [19]: 83.4% | viability, T/C [20]: 73.7% | viability, T/C [21]: 55.6% | viability, T/C [22]: 13.9% | viability, T/C [9]: 99% | viability, T/C [10]: 86.1% | viability, T/C [23]: 76.8% | viability, T/C [24]: 48.6% | viability, T/C [25]: 40.9% | viability, T/C [26]: 14.1% | viability, T/C [11]: 95.2% | viability, T/C [12]: 87.7% | viability, T/C [27]: 56.7% | viability, T/C [28]: 41.8% | viability, T/C [29]: 30.6% | viability, T/C [30]: 13.3% | viability, T/C [13]: 77.7% | viability, T/C [14]: 69.5% | viability, T/C [31]: 44.4% | viability, T/C [32]: 38.1% | viability, T/C [33]: 32.3% | viability, T/C [34]: 11.6%
